Data published in patent US20160193206A1, “BET-PROTEIN-INHIBITING DIHYDROPYRIDOPYRAZINONES” (BAYER PHARMA AKTIENGESELLSCHAFT, priority 2012, published 2016).

What was measured:
[1] = target: T1, BRD4 bromo domain 1 [BRD4(1)] (Homo sapiens, UniProt O60885); test: BRD4(1)/acetylated peptide H4 binding assay (TR-FRET); conditions: inhibition of interaction between His6-tagged BRD4(1) (amino acids 67-152) and acetylated histone H4 peptide
T1 construct: N-terminally His6-tagged BRD4(1) (amino acids 67-152); made in house; host or cells: E. coli
Excerpt: (§1) Protein-Protein Interaction Assay: BRD4/Acetylated Peptide H4 Binding Assay
1. Assay Description for BRD4 Bromo Domain 1 [BRD4(1)]
To assess the BRD4(1) binding strength of the substances described in this application, the ability thereof to inhibit the interaction between BRD4(1) and acetylated histone H4 in a dose-dependent manner was quantified.
(§2) For this purpose, a time-resolved fluorescence resonance energy transfer (TR-FRET) assay was used, which measures the binding between N-terminally His6-tagged BRD4(1) (amino acids 67-152) and a synthetic acetylated histone H4 (Ac-H4) peptide with sequence GRGK(Ac)GGK(Ac)GLGK(Ac)GGAK(Ac)RHGSGSK-biotin. The recombinant BRD4(1) protein produced in-house according to Filippakopoulos et al., Cell, 2012, 149:214-231 was expressed in E. coli and purified by means of (Ni-NTA) affinity and (Sephadex G-75) size exclusion chromatography. The Ac-H4 peptide can be purchased, for example, from Biosyntan (Berlin, Germany).
(§3) In the assay, typically 11 different concentrations of each substance (0.1 nM, 0.33 nM, 1.1 nM, 3.8 nM, 13 nM, 44 nM, 0.15 μM, 0.51 μM, 1.7 μM, 5.9 μM and 20 μM) were analysed as duplicates on the same microtitre plate. For this purpose, 100-fold concentrated solutions in DMSO were prepared by serial dilutions (1:3.4) of a 2 mM stock solution into a clear, 384-well microtitre plate (Greiner Bio-One, Frickenhausen, Germany). From this, 50 nl were transferred into a black test plate (Greiner Bio-One, Frickenhausen, Germany). The test was started by the addition of 2 μl of a 2.5-fold concentrated BRD4(1) solution (final concentration typically 10 nM in the 5 μl of reaction volume) in aqueous assay buffer [50 mM HEPES pH 7.5, 50 mM sodium chloride (NaCl), 0.25 mM CHAPS and 0.05% serum albumin (BSA)] to the substances in the test plate. This was followed by a 10-minute incubation step at 22° C. for the pre-equilibration of putative complexes between BRD4(1) and the substances.
(§4) The mixture was then incubated in the dark at 22° C. for one hour and then at 4° C. for at least 3 hours and for no longer than overnight. The formation of BRD4(1)/Ac-H4 complexes was determined by the measurement of the resonance energy transfer from the streptavidin-Eu cryptate to the anti-6His-XL665 antibody present in the reaction. For this purpose, the fluorescence emission was measured at 620 nm and 665 nm after excitation at 330-350 nm in a TR-FRET measuring instrument, for example a Rubystar or Pherastar (both from BMG Lab Technologies, Offenburg, Germany) or a Viewlux (Perkin-Elmer). The ratio of the emissions at 665 nm and at 622 nm was taken as an indicator of the amount of BRD4(1)/Ac-H4 complexes formed.
(§5) The data (ratios) obtained were normalized, with 0% inhibition corresponding to the mean from the measurements for a set of controls (typically 32 data points) in which all the reagents were present. In these, in place of test substances, 50 nl of DMSO (100%) were used. Inhibition of 100% corresponded to the mean from the measurements for a set of controls (typically 32 data points) in which all the reagents except BRD4(1) were present. The IC50 was determined by regression analysis based on a 4-parameter equation (minimum, maximum, IC50, Hill; Y=max+(min−max)/(1+(X/IC50)Hill).

[2] = target: T2, BRD4 bromo domain 2 [BRD4(2)] (Homo sapiens, UniProt O60885); test: BRD4(2)/acetylated peptide H4 binding assay (TR-FRET); conditions: inhibition of interaction between His6-tagged BRD4(2) (amino acids 357-445) and acetylated histone H4 peptide
T2 construct: N-terminally His6-tagged BRD4(2) (amino acids 357-445); made in house; host or cells: E. coli
Excerpt: as §1
2. Assay Description for BRD4 Bromo Domain 2 [BRD4(2)]
To assess the BRD4(2) binding strength of the substances described in this application, the ability thereof to inhibit the interaction between BRD4(2) and acetylated histone H4 in a dose-dependent manner was quantified.
as §2, with “BRD4(2)” for “BRD4(1)”, “357-445)” for “67-152)”, “SGRGK(Ac)GGK(Ac)GLGK(Ac)GGAK(Ac)RHRKVLRDNGSGSK-biotin.” for “GRGK(Ac)GGK(Ac)GLGK(Ac)GGAK(Ac)RHGSGSK-biotin.”
as §3, with “concentrated BRD4(2)” for “concentrated BRD4(1)”, “typically 100” for “typically 10”, “chloride (NaCl); 50 mM potassium fluoride (KF);” for “chloride (NaCl),”, “between BRD4(2)” for “between BRD4(1)”
as §4, with “BRD4(2)/Ac-H4” for “BRD4(1)/Ac-H4”, “chelate” for “cryptate”
as §5, with “BRD4(2)” for “BRD4(1)”

Row | IC50 [1] | IC50 [2] | SMILES
1 | 218 nM | 102 nM | COc1cc(C(=O)N2CCC(F)CC2)ccc1Nc1ccc2c(n1)N(Cc1ccccc1)[C@H](C)C(=O)N2C [Example 43, (3R)-4-Benzyl-6-({4-[(4-fluoropiperidin-1-yl)carbonyl]-2-methoxyphenyl}amino)-1,3-dimethyl-3,4-dihydropyrido[2,3-b]pyrazin-2(1H)-one]
2 | 368 nM | 283 nM | C[C@@H]1C(=O)N(C)c2ccc(Nc3ccc(C(=O)N[C@H]4CC[C@H](N5CCN(CC6CC6)CC5)CC4)cc3)nc2N1C1CCCCCC1 [Example 44, 4-{[(3R)-4-Cycloheptyl-1,3-dimethyl-2-oxo-1,2,3,4-tetrahydropyrido[2,3-b]pyrazin-6-yl]amino}-N-{trans-4-[4-(cyclopropylmethyl)piperazin-1-yl]cyclohexyl}benzamide]
3 | 201 nM | 112 nM | COc1cc(C(=O)NCc2ccccn2)ccc1Nc1ccc2c(n1)N(C1CCOCC1)[C@H](C)C(=O)N2C [Example 47, 4-{[(3R)-1,3-Dimethyl-2-oxo-4-(tetrahydro-2H-pyran-4-yl)-1,2,3,4-tetrahydropyrido[2,3-b]pyrazin-6-yl]amino}-3-methoxy-N-(pyridin-2-ylmethyl)benzamide]
4 | 114 nM | 317 nM | C[C@@H]1C(=O)N(C)c2ccc(Nc3ccc(C(=O)NCCc4cccnc4)cc3)nc2N1C1CCOCC1 [Example 49, 4-{[(3R)-1,3-Dimethyl-2-oxo-4-(tetrahydro-2H-pyran-4-yl)-1,2,3,4-tetrahydropyrido[2,3-b]pyrazin-6-yl]amino}-N-[2-(pyridin-3-yl)ethyl]benzamide]
5 | 166 nM | 299 nM | C[C@@H]1C(=O)N(C)c2ccc(Nc3ccc(C(=O)NC4CCC(N5CCC(F)(F)CC5)CC4)cc3)nc2N1C1CCOCC1 (some centres unmarked) [Example 52]
6 | 357 nM | 354 nM | Cc1cc(C(=O)NC2CCN(C)CC2)ccc1Nc1ccc2c(n1)N(C1CCOCC1)[C@H](C)C(=O)N2C [Example 54, 4-{[(3R)-1,3-Dimethyl-2-oxo-4-(tetrahydro-2H-pyran-4-yl)-1,2,3,4-tetrahydropyrido[2,3-b]pyrazin-6-yl]amino}-3-methyl-N-(1-methylpiperidin-4-yl)benzamide]
7 | 139 nM | 242 nM | C[C@@H]1C(=O)N(C)c2ccc(Nc3ccc(C(=O)N4CCN(C)CC4)cc3)nc2N1C1CCOCC1 [Example 56, (3R)-1,3-Dimethyl-6-({4-[(4-methylpiperazin-1-yl)carbonyl]phenyl}amino)-4-(tetrahydro-2H-pyran-4-yl)-3,4-dihydropyrido[2,3-b]pyrazin-2(1H)-one]
8 | 533 nM | 323 nM | COc1cc(C(=O)N[C@H]2CC[C@H](NC(=O)OC(C)(C)C)CC2)ccc1Nc1ccc2c(n1)N(C1CCOCC1)[C@H](C)C(=O)N2C [Example 59, tert-Butyl {trans-4-[(4-{[(3R)-1,3-dimethyl-2-oxo-4-(tetrahydro-2H-pyran-4-yl)-1,2,3,4-tetrahydropyrido[2,3-b]pyrazin-6-yl]amino}-3-methoxybenzoyl)amino]cyclohexyl}carbamate]
9 | 339 nM | 212 nM | COc1cc(C(=O)NC2CCC(O)CC2)ccc1Nc1ccc2c(n1)N(C1CCOCC1)[C@H](C)C(=O)N2C (stereo partly drawn) [Example 60, 4-{[(3R)-1,3-Dimethyl-2-oxo-4-(tetrahydro-2H-pyran-4-yl)-1,2,3,4-tetrahydropyrido[2,3-b]pyrazin-6-yl]amino}-N-(4-hydroxycyclohexyl)-3-methoxybenzamide]
10 | 262 nM | 206 nM | Cc1cc(C(=O)NCCN(C)C)ccc1Nc1ccc2c(n1)N(C1CCOCC1)[C@H](C)C(=O)N2C [Example 63, N-[2-(Dimethylamino)ethyl]-4-{[(3R)-1,3-dimethyl-2-oxo-4-(tetrahydro-2H-pyran-4-yl)-1,2,3,4-tetrahydropyrido[2,3-b]pyrazin-6-yl]amino}-3-methylbenzamide]
11 | 234 nM | 120 nM | COc1cc(C(=O)N2CCN(C3CC3)CC2)ccc1Nc1ccc2c(n1)N(C1CCOCC1)[C@H](C)C(=O)N2C [Example 65, (3R)-6-({4-[(4-Cyclopropylpiperazin-1-yl)carbonyl]-2-methoxyphenyl}amino)-1,3-dimethyl-4-(tetrahydro-2H-pyran-4-yl)-3,4-dihydropyrido[2,3-b]pyrazin-2(1H)-one]
12 | 961 nM | 445 nM | C[C@@H]1C(=O)N(C)c2ccc(Nc3ccc(C(=O)NC4CCC(N5CCC(F)(F)CC5)CC4)cc3)nc2N1C1CCCCC1 (stereo partly drawn) [Example 71, 4-{[(3R)-4-Cyclohexyl-1,3-dimethyl-2-oxo-1,2,3,4-tetrahydropyrido[2,3-b]pyrazin-6-l]amino}-N-[4-(4,4-difluoropiperidin-1-yl)cyclohexyl]benzamide]
13 | 273 nM | 196 nM | COc1cc(C(=O)N2CC3(COC3)C2)ccc1Nc1ccc2c(n1)N(C1CCCCC1)[C@H](C)C(=O)N2C [Example 73, (3R)-4-Cyclohexyl-6-{[2-methoxy-4-(2-oxa-6-azaspiro[3.3]hept-6-ylcarbonyl)phenyl]amino}-1,3-dimethyl-3,4-dihydropyrido[2,3-b]pyrazin-2(1H)-one]
